# The source made the active and inactive calls. The calls are words filed in the database; no cut-off is given here.
# System: Replicase polyprotein 1ab (Severe acute respiratory syndrome coronavirus 2), P0DTD1 [C145A]
# Assay: Binding affinity to recombinant hexa-His tagged SARS-COV2 main protease C145A mutant expressed in HEK293T cells by in-gel fluorescence analysis
# Type: cell-based
structure (smiles),measurement,value
C#CC[C@H](NC(=O)C(F)(F)F)C(=O)N1C[C@H]2[C@@H]([C@H]1C(=O)N[C@H](C#C)C[C@@H]1CCNC1=O)C2(C)C,Activity,inactive

# From ChEMBL document CHEMBL5365428, “Alkyne as a Latent Warhead to Covalently Target SARS-CoV-2 Main Protease” (J Med Chem, 2023)
